“Also recorded” adds a separate entry of the source.

Test [1] has as its target T1, Cathepsin K (Homo sapiens, UniProt P43235).
T1 sequence (P43235 115-329): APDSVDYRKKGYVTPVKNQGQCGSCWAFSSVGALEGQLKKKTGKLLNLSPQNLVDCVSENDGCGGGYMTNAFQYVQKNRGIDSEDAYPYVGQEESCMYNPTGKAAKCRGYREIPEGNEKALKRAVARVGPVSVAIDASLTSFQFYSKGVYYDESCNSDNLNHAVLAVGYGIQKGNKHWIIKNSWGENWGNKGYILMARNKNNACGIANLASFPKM
The experiment in a line: LC-MS of intact CatK and CatK-inhibitor complexes. It counts as binding. To be noted: for formation of covalent CatK-inhibitor complex: 6 h incubation, intact protein LC-MS; for Measured mass complex: CatK 3 μM, inhibitor 100 μM, 37° C., 6 h, deconvoluted ESI mass. The protocol: The masses were determined from deconvoluted electrospray ionization mass spectra of CatK complexes. FIG. 4A to FIG. 4E each provide the result for a sample. In each of these FIGS. 4A to 4E the first panel provides the UPLC chromatogram, the second panel provides the electrospray ionization mass spectrum, and the third panel provides the corresponding deconvoluted electrospray ionization mass spectrum (average isotopes) with an indication of the measured mass of the predominant species. FIG. 4A provides the results obtained for intact CatK. FIG. 4B provides the results obtained for CatK.
Cathepsin K (3 μM) in reaction buffer ([…]) was incubated with inhibitor (100 μM) at 37° C. for 6 hours prior to analysis. 1 μL injections of the sample were made onto a XEVO-G2XSQTOF#YEA928 UPLC-MS system with a Waters Acquity CM detector. Chromatographic separation was carried out on a ACQUITY UPLC® Protein BEH C4 Column over a 12 minute gradient elution of 2% to 100% acetonitrile in water (0.1% formic acid) at a flow rate of 0.500 mL/min. For the first 4 minutes the flow was diverted to the waste to avoid contamination of the MS with high concentrations of buffer components. After 4 minutes, the elution flow was ionized with an ESI ionization source and measured on a XEVO-G2XSQTOF. The results were analyzed using MassLynx V4.1. The total mass of the complex was obtained by deconvolution of electrospray ionization mass spectrum envelope (average isotopes) with the MaxEnt1 function.
Cathepsin K was incubated with ODN, 4, 5 or 6 for 6 h to allow full covalent bond formation and submitted for measurement without any digestion steps, according to the method for LC-MS for intact CatK and CatK-inhibitor complexes described in the assays section above.

The target of test [2] is hCatL (Homo sapiens, UniProt P07711). The experiment in a line: In vitro inhibition of purified human Cathepsin L (Z-FR-AMC). In kind it is biochemical. To be noted: 30 min incubation with inhibitor, mean ± SD, triplicate. The procedure:
(§1) Cathepsin (e.g. Cathepsin K/L/V/S/B), in particular purified human Cathepsin, was diluted in freshly prepared reaction buffer consisting of 50 mM MES pH 5.5, 25 mM EDTA and 2.5 mM DTT. 0.05% Tween20 (v/v) may be added to the reaction buffer of the Cathepsin K.
(§2) Activity assays may be conducted in a suitable manner. […] Plates were shaken at 600 rpm for 1 minute and centrifuged at 1000 rpm for 1 minute prior to incubation. Cathepsin activity was quantified using synthetic fluorogenic peptide substrate Z-FR-AMC (Cath K, L, V), Z-RR-AMC (Cath B) or Z-FVR-AMC (Cath S). Fluorescence intensity (λex=350 nm, λem=440 nm) was measured every 2 minutes in arbitrary units (A.U.) on a CLARIOstar (BMG Labtech) microplate reader and values were converted to product formation [AMC]. […] Measurements were performed in triplicate.
(§3) Inhibitors (200 nL, 100× final concentration in DMSO) were diluted in reaction buffer (10 μL). Purified human Cathepsin (5 μL, 4× final concentration) was added and the reaction mixture was incubated for 30 min at room temperature. Fluorogenic substrate (5 μL, 4× final concentration) was added and fluorescence intensity was measured every 2 minutes for 30-90 minutes.
(§4) The potency of the compounds as CatK inhibitors was assessed in an in vitro inhibition assay on purified human CatK (Table 2). Cathepsin was incubated with inhibitor, and the hydrolysis of substrate was initiated by addition of substrate.

The target in test [3] is T2, hCatK (Homo sapiens, UniProt P43235).
T2 sequence (P43235 115-329): T1 sequence (P43235 115-329)
The experiment in a line: In vitro inhibition of purified human Cathepsin K (fluorogenic substrate Z-FR-AMC). Particulars: for selectivity for CatK over structurally related human Cathepsins: in words, from Table 2; for IC50: purified human Cathepsin, 30 min incubation with inhibitor, mean ± SD, triplicate. In kind it is biochemical. The protocol:
as §1
(§5) Activity assays may be conducted in a suitable manner. In the experiments described herein, the assays were typically conducted in Corning 3820 Low Volume 384 Well Assay Plate with a final assay volume of 20 μL. Plates were shaken at 600 rpm for 1 minute and centrifuged at 1000 rpm for 1 minute prior to incubation. Cathepsin activity was quantified using synthetic fluorogenic peptide substrate Z-FR-AMC (Cath K, L, V), Z-RR-AMC (Cath B) or Z-FVR-AMC (Cath S). Fluorescence intensity (λex=350 nm, λem=440 nm) was measured every 2 minutes in arbitrary units (A.U.) on a CLARIOstar (BMG Labtech) microplate reader and values were converted to product formation [AMC]. […] Measurements were performed in triplicate.
as §3, §4

In test [4] the target is hCatS (Homo sapiens, UniProt P25774). The test is described as follows: In vitro inhibition of purified human Cathepsin S (Z-FVR-AMC). Particulars: 30 min incubation with inhibitor, mean ± SD, triplicate. In kind it is biochemical. The procedure: as §1, §5, §3, §4
The target of test [5] is hCatB (Homo sapiens, UniProt P07858). The experiment in a line: In vitro inhibition of purified human Cathepsin B (Z-RR-AMC). In kind it is biochemical. Particulars: 30 min incubation with inhibitor, mean ± SD, triplicate. The procedure:
as §1, §2, §3, §4

Test [6] deals with hCatV (Homo sapiens, UniProt O60911). The experiment in a line: In vitro inhibition of purified human Cathepsin V (Z-FR-AMC). In kind it is biochemical. To be noted: 30 min incubation with inhibitor, mean ± SD, triplicate. The procedure: as §1, §2, §3, §4
For test [7], the target named is T3, CatK (Homo sapiens, UniProt P43235).
T3 sequence (P43235 115-329): T1 sequence (P43235 115-329)
The experiment in a line: CatK activity (probe BMV109) and CatK expression (Western blot) in OC lysates. To be noted: for mature CatK in OCs (Western blotting): OCs treated with inhibitor. More on the design: endogenous in cells; host or cells: human osteoclasts differentiated from CD14+ monocytes on cortical bone slices. In kind it is cell-based. The procedure: The inhibitory properties on CatK of inhibitors of this invention were tested in a biologically relevant setting: inhibition of bone resorption by osteoclasts (OCs). OCs are the cells that degrade the bone matrix by secretion of acid and CatK into the resorption lacunae, resulting in the cleavage of collagen type I. Inhibition of osteoclastic CatK was studied by culturing OCs on cortical bone slices in presence of inhibitors of this invention (FIG. 5). […] OCs predominantly form deep trenches (paths) while OCs lacking CatK form small pits (circular dots). B) CD14+ monocytes on bone slices were treated with MCSF (day 0) and RANKL (day 3) to stimulate differentiation to mature OCs. Medium containing either an inhibitor or DMSO was refreshed on day 7, 10, 13 and 16. At day 21, OCs were washed away and lysed, and bone slices were stained to visualize bone resorption. C) Bone resorption visualized by staining of resorption pits with Coomassie Brilliant Blue. More staining means more resorption pits, thus more bone resorption activity. Normal D) Schematic overview of pro-Cathepsin K activation. E) CatK activity and expression in OC lysates. […] Darker bands indicate more activity/expression of CatK.
OC lysates were treated with activity-based irreversible Cathepsin probe BMV109 to assess whether the observed inhibition of bone resorption could be correlated with CatK activity (FIG. 5E).

Setting [8] is: samples treated with high concentrations.

Chain of hCatV (O60911 114-334): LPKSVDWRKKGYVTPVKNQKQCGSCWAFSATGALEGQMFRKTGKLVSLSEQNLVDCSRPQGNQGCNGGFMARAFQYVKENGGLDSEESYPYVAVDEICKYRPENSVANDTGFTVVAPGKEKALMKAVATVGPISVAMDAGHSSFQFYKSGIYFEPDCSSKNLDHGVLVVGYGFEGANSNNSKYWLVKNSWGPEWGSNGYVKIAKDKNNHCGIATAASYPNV
Chain of hCatL (P07711 114-333): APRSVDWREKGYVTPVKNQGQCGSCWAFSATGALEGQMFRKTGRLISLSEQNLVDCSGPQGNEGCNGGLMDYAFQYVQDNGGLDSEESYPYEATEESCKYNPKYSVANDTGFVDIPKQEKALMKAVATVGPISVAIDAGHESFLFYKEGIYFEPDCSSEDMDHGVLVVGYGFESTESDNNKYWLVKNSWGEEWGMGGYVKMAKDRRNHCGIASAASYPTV
Chain of hCatS (P25774 115-331): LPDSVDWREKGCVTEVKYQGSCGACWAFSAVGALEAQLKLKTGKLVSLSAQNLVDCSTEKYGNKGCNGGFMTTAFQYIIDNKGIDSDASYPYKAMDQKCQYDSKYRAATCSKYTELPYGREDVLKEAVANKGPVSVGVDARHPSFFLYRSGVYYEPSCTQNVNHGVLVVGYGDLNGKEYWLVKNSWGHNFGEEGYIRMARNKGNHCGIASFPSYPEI

In general, IC50 refers to the concentration that gives 50% inhibition. A low value points to greater potency. Take `C#CC(C)NC(=O)[C@H](CC(C)(C)F)N[C@@H](c1ccc(-c2ccc(S(C)(=O)=O)cc2)cc1)C(F)(F)F` (mixture of isomers) [Compound 5, (S)—N—((R/S)-but-3-yn-2-yl)-4-fluoro-4-methyl-2-(((S)-2,2,2-trifluoro-1-(4′-(methylsulfonyl)-[1,1′-biphenyl]-4-yl)ethyl)amino)pentanamide]: the “formation of covalent CatK-inhibitor complex” value in test [1] is “formation of a covalent hCatK—inhibitor complex; also recorded: covalent complex formed”. The Measured mass complex in test [1] came out at 24231. Also, the IC50 in test [2] is above 100 µM; in test [3], 0.346 ± 0.0116 µM; in test [4] it was 15.9 ± 1.84 µM; in test [5], 39.7 ± 4.34 µM; in test [6] it was 45.9 ± 2.33 µM. In addition, the “selectivity for CatK over structurally related human Cathepsins” value in test [3] is listed as “conserved”. In addition, the “mature CatK in OCs (Western blotting)” value in test [7] is on record as “mature CatK is present”. The “CatK activity in OC lysates (probe BMV109)” value (from here on “CatK activity in OC lysates”) in test [7] (setting [8]) is given as “full inhibition of CatK activity”.
Take `C#CCNC(=O)[C@H](CC(C)(C)F)N[C@@H](c1ccc(-c2ccc(S(C)(=O)=O)cc2)cc1)C(F)(F)F` [Compound 4, (S)-4-fluoro-4-methyl-N-(prop-2-yn-1-yl)-2-(((S)-2,2,2-trifluoro-1-(4′-(methylsulfonyl)-[1,1′-biphenyl]-4-yl)ethyl)amino)pentanamide]: in test [1], the “formation of covalent CatK-inhibitor complex” value is reported as “formation of a covalent hCatK—inhibitor complex; also recorded: covalent complex formed”. In addition, the Measured mass complex in test [1] amounted to 24217. Also, the IC50 in test [2] was above 100 µM; in test [3] it was 0.293 ± 0.00873 µM; in test [4], 10.7 ± 0.842 µM; in test [5], 9.39 ± 0.628 µM; in test [6] it was 23.8 ± 1.41 µM. Also, the “selectivity for CatK over structurally related human Cathepsins” value in test [3] is reported as “conserved”. For the same molecule, in test [7], the “mature CatK in OCs (Western blotting)” value is recorded as “mature CatK is present”. The “CatK activity in OC lysates” value in test [7] (setting [8]) was “full inhibition of CatK activity”.
Take `CC(C)(F)C[C@H](N[C@@H](c1ccc(-c2ccc(S(C)(=O)=O)cc2)cc1)C(F)(F)F)C(=O)NC1(C#N)CC1` [ODN, (S)—N-(1-cyanocyclopropyl)-4-fluoro-4-methyl-2-(((S)-2,2,2-trifluoro-1-(4′-(methylsulfonyl)-[1,1′-biphenyl]-4-yl)ethyl)amino)pentanamide, reference compound]: the “formation of covalent CatK-inhibitor complex” value in test [1] is “covalent complex formed”. The Measured mass complex in test [1] was 24244. Further, the IC50 in test [2] turned out to be 5.35 ± 0.596 µM; in test [3], 0.00056 ± 2e-06 µM; in test [4] it was 0.0243 ± 0.000569 µM; in test [5], 0.0626 ± 0.0025 µM; in test [6], 0.605 ± 0.0401 µM. Further, the “CatK activity in OC lysates” value in test [7] (all samples treated) was “strong increase of mature CatK activity”.
